Results reported in patent publication US20200405794A1, “PHARMACEUTICAL COMPOSITION FOR PREVENTING OR TREATING CANCER […] AND H[…] EFFECTIVE COMPONENTS” (priority 2018, published 2020).

Key:
[1] = test system: 4T1 cancer cell line-implanted mice; assay: 4T1 III: tumor size and survival with high-dose hydroxyurea; format: in vivo, Balb/c mice; settings: 17 days; OTS-412 1×10^7 pfu intratumorally once; high-dose hydroxyurea 90 mg/kg intraperitoneally once a day
[2] = day 21; OTS-412 1×10^7 pfu twice or hydroxyurea 30 mg/kg, each alone; n=10
[3] = test system: HCT-116 cancer cell line-implanted mice; assay: Tumor size in human colorectal cancer cell (HCT-116)-implanted mice; format: in vivo, Balb/c nu/nu mice; settings: day 28; hydroxyurea only, once daily; n=5
[4] = test system: NCI-H460 lung cancer cells-implanted mice; assay: Tumor size in human lung cancer cell (NCI-H460)-implanted mice; format: in vivo, Balb/c nu/nu mice; settings: day 15; OTS-412 1×10^5 pfu twice (5 days apart); hydroxyurea 20 mg/kg once daily
[5] = test system: 4T1 cancer cell line-implanted mice; assay: 4T1 I: tumor size in mouse breast cancer cell-implanted mice; format: in vivo, Balb/c mice; settings: 10 days; OTS-412 1×10^7 pfu intratumorally once; hydroxyurea 30 mg/kg intraperitoneally once a day; n=4

## hydroxyurea
[1]
  tumor size increase: ~3.5 times
[2]
  body weight loss: around 10%
[3]
  tumor size increase: 11 times
[4]
  tumor size increase: 9 times
[5]
  tumor size increase: ~5 times
